Experimental data taken from a melting point compilation (Tetko et al.; mined from patent text by program, amines drawn as free bases though some values may be those of a salt).

melting point [°C]	SMILES
160 to 161	CCC(C)(Oc1ccc(CC(=O)c2ccc3c(c2)CCC3)cc1)C(=O)O (configuration not stated)
159 to 163	COCC(=O)Nc1ccc2ncnc(Nc3cccc(I)c3)c2c1
90 to 100	CC(C)Oc1ccc2nc(COc3ccc(CC4SC(=O)N(C(c5ccccc5)(c5ccccc5)c5ccccc5)C4=O)cc3)n(C)c2n1 (configuration not stated)
295 to 297	O=c1ccc2cnccc2[nH]1
64 to 68	O=C(Oc1cccc2c(C(=O)c3ccc(F)cc3)c(-c3ccc(OCCN4CCCC4)cc3)sc12)c1ccc(F)cc1
195 to 196	O=C1Cc2cc(F)cc(C(=O)c3ccc(F)cc3)c2N1
151 to 153	CCC(=O)SCC(Cc1ccccc1)C(=O)Nc1cc(C)cc(C(=O)O)c1 (configuration not stated)
281 to 283	CC(=O)NN1C(=O)c2cc3ccc4c(c3c(-c3ccc5c(c3)OCO5)c2C1=O)OCO4
114 to 115	CCOC(=O)c1ccc(-c2nc(COc3ccc(COc4nn(-c5ccccc5)cc4/C=C/P(=O)(OCC)OCC)cc3OC)c(C)o2)s1
61 to 63	CS(=O)(=O)Nc1ccc(SCCCCl)cc1
202	Cc1nc(S)nn1-c1ccc([N+](=O)[O-])cc1
117 to 118	CC(=O)SC1C2=C(CCCC2)C(=O)N1c1ccc(Br)cc1F (configuration not stated)
210 to 212	O=C(O)CCc1ccc(CCNC(=S)Cc2ccccc2)cc1
125 to 126	COc1cccc(-c2ccc3cc(OC)ccc3c2Oc2ccc(O)cc2)c1
140	O=C1NC(C2CCCCC2)C1O (configuration not stated)
208	CCOC(=O)C1=C(C)NC(N)=C(C(=O)OCC)C1c1ccccc1C#N (configuration not stated)
190 to 191	CCCn1c(COCC)nc2c(N)nc3ccc(OCc4cccnc4)cc3c21
86 to 88	CC(=O)SCCC1C(=O)N2CCCC(C(=O)OC(C)(C)C)N2C1=O (configuration not stated)
95	O=C(NC(=O)N1CCC(Cc2ccccc2)CC1)c1ccc(O)cc1
232 to 234	Cc1cc(C)c(Nc2nc(C)ncc2S(=O)(=O)c2ccc(-c3ccncc3)cc2)c(C)c1
169 to 172	COc1cc2c3c(c1OC)CN(C)CC3Cc1cc3c(cc1-2)OCO3 (configuration not stated)
127 to 128	O=C1CCC(NC(=O)OCc2ccccc2)(C(=O)OCc2ccc([N+](=O)[O-])cc2)O1 (configuration not stated)
204 to 206	NS(=O)(=O)c1ccn2c1C(=O)OCC2
67 to 69	OC(c1cccc(Br)n1)(C(F)(F)F)C(F)(F)F
149 to 152	CCc1nc2c(C)cc(C)nc2n1Cc1ccc(-c2ccccc2)c(-c2nc(=O)o[nH]2)c1

melting point [°C]	SMILES
75 to 77	CCOC(=O)c1c(C)[nH]c2ccc(OC[C@@H](O)CN=[N+]=[N-])cc12
> 240	Oc1ncnc2cnc(NC3CC3)nc12
103	C=C[C@@H](C[C@H](O)[C@H](CC1CCCCC1)NC(=O)[C@H](Cc1c[nH]cn1)NC(=O)[C@@H](CC(=O)N1CCC(C(=O)OCC)CC1)Cc1ccccc1)C(C)C
192 to 195	COc1ccc(N2CCN(c3c(C)c(C)c4c(c3-c3ccoc3)CC(C)(C)O4)CC2)cc1
192 to 193	N#Cc1cccc2c1N(Cc1ccc(Cl)s1)C(=O)C21COc2cc3c(cc21)OCO3 (configuration not stated)
199 to 202	COc1ccc(C2(C#N)CCC(=O)CC2)c2c1oc1ccccc12
99 to 100	CCNC(=O)Oc1ccc2c(N(C)CCN3CCOCC3)noc2c1
109 to 111	COc1ccc(CC(=O)c2c(OC)cc(OC)cc2OC)c(OC)c1
142 to 144	CCOC(=O)c1ccc(C#CC(O)c2cc(C(C)(C)C)cc(C(C)(C)C)c2O)cc1 (configuration not stated)
46 to 47	CC=Cc1c(C(C)C)nc(C(C)C)c(CO)c1-c1ccc(F)cc1
205 to 209	O=C(Nc1ccc(-n2nc(C(F)(F)F)cc2C2CC2)cc1)c1ccc2nccnc2c1
204 to 207	COc1cccc2c1C=C(C(=O)O)C(CC(F)(F)F)O2 (configuration not stated)
84 to 85	O=C1N(Cc2ccccn2)c2ccccc2C12COc1cc3c(cc12)CCO3 (configuration not stated)
207 to 209	O=C(O)C=Cc1ccc(OCCC(c2ccccc2)(c2ccccc2)c2ccccc2)cc1
> 300	Cc1ccc(-c2c(Cl)nc(-c3cccs3)nc2NS(=O)(=O)c2ccc(C(C)(C)C)cc2)cc1
62 to 65	CC(=O)OC1CC=C(CCCCCCC(=O)O)C1=O (configuration not stated)
196 to 198	CCOC(=O)C1CC2=C(CO1)C(=O)c1cc3ccccc3c(OC(C)=O)c1C2=O (configuration not stated)
267 to 269	CCCCN(CCCC)c1cc(=O)n(-c2ccc(S(=O)(=O)O)cc2)[nH]1
74 to 76	C[Si](C)(C)c1sccc1NC=O
44 to 45	COC(=O)C(C)(N)Cc1csc2ccccc12 (configuration not stated)
148 to 150	COc1cc(N)c(Cl)cc1C(=O)NCC1CCN(CCCC(=O)c2ccccc2)CC1
136 to 138	COc1ncc(-c2ccncc2)cc1Br
96 to 97	CNS(=O)(=O)CCc1ccc(NN=CCCC#N)cc1
146 to 147	Cc1nc(-c2cccc(Cl)c2)n(-c2ccc(S(N)(=O)=O)cc2)n1
99 to 100	Nc1ncccc1OCc1ccccc1Br

melting point [°C]	SMILES
163 to 164	CC1CCC(=NNc2ccccc2)c2nccc(=O)n21 (configuration not stated)
114 to 116	Cc1cnc(N(C)C)nc1-c1ccncc1
68 to 69.5	CSC(=C[N+](=O)[O-])NCCCOc1cccc(CN2CCCCC2)c1
158 to 159	CCC(=O)c1ccc2cc(O)ccc2c1
245	O=C1CCCCC(CCc2nc3cc(Br)cnc3[nH]2)N1 (configuration not stated)
98 to 99	CC(C)(O)[C@H]1C[C@@H](C(=O)O)C1(C)C
226 to 227	CNc1nnc(-c2ccc3ncn(-c4cccc(OC(F)(F)F)c4)c3c2)o1
86 to 90	O=C1C[C@H](NC(=O)[C@H]2CCCN2C(=O)c2nc(CCCc3ccc(O)cc3)c[nH]2)[C@@H](OCc2ccccc2)O1
198 to 199	CCCCOC1c2ccccc2C(=O)N(CC2CC2)C1(/C=C/C(N)=O)CNC(=O)OC(C)(C)C (configuration not stated)
80 to 83	CN(C)CCNC(=O)N1CCN(c2ccc(Cl)c(Cl)c2)CC1
140	CCc1ccc(C=CC(=O)O)cc1
153 to 155	CCOc1cccc(-n2cc(-c3ccc4c(c3)OCO4)c3c(N)ncnc32)c1
156 to 158	CCOC(=O)C1=C(C)NC(COC)=C(C(=O)OCC)C1c1ccc(S(C)(=O)=O)cc1 (configuration not stated)
130 to 134	Nc1ccc(Oc2ccc(O)cc2)cc1
88 to 90	CS(=O)(=O)c1ccc(-c2cc(CO)cn2-c2ccc(F)cc2)cc1
137 to 138	CS(=O)(=O)c1cc(Br)nc(Br)c1
83 to 85	O=C(c1ccccc1)N1CCC(CO)CC1
123 to 125	NC(Cc1cccc2cccc(Br)c12)=NO
144 to 146	CC(C)(C)OC(=O)NCOc1ccccc1C(=O)OCC#N
179 to 180	CC(C)(Oc1ccc(CCC(=O)c2ccc(-c3ccccc3)s2)c(Cl)c1Cl)C(=O)O
71.5 to 73.5	CCC(=O)OCCc1ccc2c(c1)C(=O)c1ccccc1CO2
176 to 177	Cc1c(NC(=O)c2ccc(OCc3ccccc3)cc2F)ccc2cc(CN3CCCC3)cnc12
187 to 188	C1=CC(c2ccccc2)(c2ccc(N3CCOCC3)cc2)Oc2cc(N3CCOCC3)c3ccccc3c21 (configuration not stated)
183 to 184	CCOC(=O)c1sc2cccc(O)c2c1C
120	O[C@@H]1[C@H](O)[C@H](O)CO[C@H]1n1c(Br)nc2cc(Cl)ccc21

melting point [°C]	SMILES
141 to 142	COc1ccc(CNc2nc(SC)ncc2C(=O)c2cccnc2)cc1Cl
101 to 104	CCOC(=O)C(=CNC1CC1)C(=O)c1ccc(F)c(Cl)c1F
141 to 143	Cc1c(-c2ccccc2)nn(C(C)C(=O)N(C)C)c1[N+](=O)[O-] (configuration not stated)
85.5 to 87.5	CCOC(=O)C1=C(C)N=C(SCc2ccccc2)N(C(=O)OCC)C1c1ccccc1C(F)(F)F (configuration not stated)
131 to 133	OCCCc1cc(-c2ccc(Cl)cc2)n(-c2ccc(Cl)nn2)n1
85 to 86	CNC(=O)c1c(OC(C)C)c2cc(OC)ccc2n1C
110	CCS(=O)(=O)Oc1cccc([N+](=O)[O-])c1
108 to 109	CC(C#N)c1ccc2c(=O)c3ccccc3ccc2c1 (configuration not stated)
230	CCCCc1ccc(Cn2cc(C3c4ccccc4C=Cc4ccccc43)c(=S)[nH]c2=O)cc1C(=O)O
54 to 57	O=C(O)Cc1ccccc1Sc1ccc(F)c(F)c1
250 to 253	Cc1ccc(-c2csc(NC(=O)c3nnn[nH]3)n2)cc1
219 to 220	O=C(Nc1ccc(-c2nc(-c3ccco3)no2)c(Cl)c1)OCC(Cl)(Cl)Cl
152 to 154	Cc1cccc(C)c1NC(=O)NCCCNC(C)C
73 to 76	C=CCn1c(CSC#N)nc2ccccc2c1=O
85	C#CCOc1ccc(CCNC(=O)C(O)Cc2ccc(C)cc2)cc1OC (configuration not stated)
160	CC[C@@H](C(=O)O)n1ccc2ccc(Cl)cc2c1=O
223 to 225	Cc1ccc(NC(=O)N[C@]2(C3CCCCC3)N=Cc3ccccc3N(C)C2=O)cc1N(C)c1nnn[nH]1
116 to 118	N#CC1CCn2c(cc3ccccc32)C1 (configuration not stated)
132 to 134	Oc1ccc2c(c1)C[C@@H](NC[C@H](O)c1ccc(OCc3ccccc3)cc1)CC2
256	Nc1ncc(CCN2CCC(C(=O)c3ccc(F)cc3)CC2)c(O)n1
99 to 101	COc1cc2c3c(c1)nc(SCc1ccncc1)n3CCC2
168 to 169	Cc1cnc2ccnn2c1-c1cccc(C(F)(F)F)c1

SMILES	melting point [°C]
[N-]=[N+]=Nc1cc2ccccc2oc1=O	108 to 112
O=[N+]([O-])c1ccc2c(c1)C(c1ccccc1)=NCc1cc(CO)nn1-2	192 to 194
CN1CCc2cc(O)c(O)c(Sc3cccs3)c2CC1	189 to 191
CNC(=O)Oc1ccc2c(N(C)CCN3CCOCC3)noc2c1	94 to 95
CCCCNC(=O)N1N=C(c2ccc(N)cc2)c2cc(Cl)ccc2CC1C (configuration not stated)	89 to 91
